Read-outs that look alike come from different tables or passages of the source.
Assays:
[1] = tested on: TNFα secretion from LPS stimulated white blood cells from human buffy coat; assay: TNFα secretion assay, LPS stimulation; conditions: Homo sapiens; for inhibition at 0.03 µM: read-out: TNFα LPS percent inhibition, 0.03 μM
Protocol: (§1) Various concentrations of each test compound were added at the time of stimulation. […] After the plate was washed with 0.1% Tween 20/PBS, an HRP-luminescent substrate was added to each well and light intensity measured using a LJL Analyst plate luminometer.

[2] = tested on: TNFα secretion from PMA/ionomycin stimulated white blood cells from human buffy coat; assay: TNFα secretion assay, PMA/ionomycin stimulation; conditions: for inhibition at 0.03 µM: read-out: TNFα PI percent inhibition, 0.03 μM
Protocol: as §1

cytokine secretion = assay: Suppression of cytokine secretion in vitro by individual tricyclic compounds
Protocol: Individual tricyclic compounds were tested for their ability to suppress cytokine secretion in vitro.

[3] = read-out: TNFα LPS percent inhibition, […]
[4] = read-out: TNFα PI percent inhibition, […]
[5] = read-out: IL-1β LPS percent inhibition
[6] = read-out: IL-2 PI percent inhibition

How did the inhibition at 0.03 µM [1] turn out when `CNCC[C@@H](Oc1ccccc1C)c1ccccc1` [Tomoxetine, tomoxetine] was run?
The inhibition at 0.03 µM was 0%.

And the inhibition at 0.07 µM ([1]; read-out: TNFα LPS percent inhibition, 0.07 μM)?
Its inhibition at 0.07 µM is 1%.

What about the inhibition at 69 µM [1, 3] of the same molecule?
Its inhibition at 69 µM is 0%.

And the inhibition at 0.03 µM [2]?
The inhibition at 0.03 µM was 0%.

What about the inhibition at 0.07 µM ([2]; read-out: TNFα PI percent inhibition, 0.07 μM) of the same molecule?
Its inhibition at 0.07 µM is 4%.

And the inhibition at 69 µM [2, 4]?
Its inhibition at 69 µM is 72%.

What about the inhibition at 0.03 µM (cytokine secretion; [5]) of the same molecule?
The inhibition at 0.03 µM was 0%.

And the inhibition at 0.07 µM (cytokine secretion; [5])?
The inhibition at 0.07 µM was 0%.

What about the inhibition at 69 µM (cytokine secretion; [5]) of the same molecule?
Its inhibition at 69 µM is 0%.

What about the inhibition at 0.03 µM (cytokine secretion; [6]) of the same molecule?
The inhibition at 0.03 µM was 0%.

What about the inhibition at 0.07 µM (cytokine secretion; [6]) of the same molecule?
Its inhibition at 0.07 µM is 1%.

What about the inhibition at 69 µM (cytokine secretion; [6]) of the same molecule?
Its inhibition at 69 µM is 79%.

For `CC(CN(C)C)CN1c2ccccc2CCc2ccccc21` (stereo not shown) [Trimipramine, trimipramine], which inhibition at 0.01 µM ([1]; read-out: TNFα LPS percent inhibition, 0.01 μM) is on record?
Its inhibition at 0.01 µM is 0%.

And the inhibition at 0.03 µM [1]?
The inhibition at 0.03 µM was 1%.

And the inhibition at 0.06 µM ([1]; read-out: TNFα LPS percent inhibition, 0.06 μM)?
Its inhibition at 0.06 µM is 3%.

And the inhibition at 29 µM [1, 3]?
Its inhibition at 29 µM is 11%.

What about the inhibition at 0.01 µM ([2]; read-out: TNFα PI percent inhibition, 0.01 μM) of the same molecule?
The inhibition at 0.01 µM was 0%.

What about the inhibition at 0.03 µM [2] of the same molecule?
Its inhibition at 0.03 µM is 0%.

And the inhibition at 0.06 µM ([2]; read-out: TNFα PI percent inhibition, 0.06 μM)?
The inhibition at 0.06 µM was 0%.

And the inhibition at 29 µM [2, 4]?
The inhibition at 29 µM was 77%.

And the inhibition at 0.01 µM (cytokine secretion; [5])?
The inhibition at 0.01 µM was 0%.

And the inhibition at 0.03 µM (cytokine secretion; [5])?
The inhibition at 0.03 µM was 0%.

What about the inhibition at 0.06 µM (cytokine secretion; [5]) of the same molecule?
The inhibition at 0.06 µM was 0%.

And the inhibition at 29 µM (cytokine secretion; [5])?
The inhibition at 29 µM was 2%.

And the inhibition at 0.01 µM (cytokine secretion; [6])?
The inhibition at 0.01 µM was 0%.

And the inhibition at 0.03 µM (cytokine secretion; [6])?
The inhibition at 0.03 µM was 5%.

What about the inhibition at 0.06 µM (cytokine secretion; [6]) of the same molecule?
Its inhibition at 0.06 µM is 6%.

And the inhibition at 29 µM (cytokine secretion; [6])?
The inhibition at 29 µM was 36%.

Source: patent US20090075951A1, “Methods and Reagents for the Treatment of Inflammatory Disorders” (CombinatoRx, Inc., priority 2003, published 2009)
